Experiments:
barnyardgrass [1] = assay: Test B flooded paddy test; type: in vivo, Echinochloa crus-galli; conditions: Flood, 250 g ai/ha; 0 to 100 scale where 0 is no effect and 100 is complete control
Procedure, shortened: (§1)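 Evaluation is visual, against untreated controls, 13 to 15 days after treatment. Before treatment, plants reached the 2-leaf stage; pots were then flooded 3 cm deep, compound was added to the water, and that level was maintained. Ratings run 0 to 100, with 100 meaning complete control.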

giant foxtail [2] = assay: Test A preemergence; type: in vivo, Setaria faberii; conditions: for Plant response rating, Foxtail, Giant: 125 g ai/ha, 0 to 100 scale where 0 is no effect and 100 is complete control; for Foxtail, Giant plant response rating (0 to 100 scale): 31 g ai/ha
Procedure, shortened: (§2)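 Compounds in non-phytotoxic solvent with surfactant applied as soil spray preemergence, or postemergence to plants 2-10 cm at one- to two-leaf stage, in loam/sand. After approximately 10 days in greenhouse, injury rated visually versus untreated controls, 0 (no effect) to 100 (complete control).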

blackgrass = assay: Test A postemergence; type: in vivo, Alopecurus myosuroides
Procedure, shortened: as §2

ragweed [3] = assay: Test A preemergence; type: in vivo, Ambrosia elatior; conditions: for Plant response rating, Ragweed: 125 g ai/ha, 0 to 100 scale where 0 is no effect and 100 is complete control; for Ragweed plant response rating (0 to 100 scale): 31 g ai/ha
Procedure, shortened: as §2

pigweed [4] = assay: Test A postemergence; type: in vivo, Amaranthus retroflexus
Procedure, shortened: as §2

kochia [5] = assay: Test A preemergence; type: in vivo, Kochia scoparia; conditions: for Plant response rating, Kochia: 125 g ai/ha, 0 to 100 scale where 0 is no effect and 100 is complete control; for Kochia plant response rating (0 to 100 scale): 31 g ai/ha
Procedure, shortened: as §2

wheat = assay: Test A postemergence; type: in vivo, Triticum aestivum
Procedure, shortened: as §2

sedge, umbrella = assay: Test B flooded paddy test; type: in vivo, Cyperus difformis; conditions: Flood, 250 g ai/ha; 0 to 100 scale where 0 is no effect and 100 is complete control
Procedure, shortened: as §1

rice = assay: Test B flooded paddy test; type: in vivo, Oryza sativa; conditions: Flood, 250 g ai/ha; 0 to 100 scale where 0 is no effect and 100 is complete control
Procedure, shortened: as §1

Heteranthera limosa = assay: Test B flooded paddy test; type: in vivo; conditions: Flood, 250 g ai/ha; 0 to 100 scale where 0 is no effect and 100 is complete control
Procedure, shortened: as §1

barnyardgrass [6] = assay: Test A preemergence; type: in vivo, Echinochloa crus-galli; conditions: for Plant response rating, Barnyardgrass: 125 g ai/ha, 0 to 100 scale where 0 is no effect and 100 is complete control; for Barnyardgrass plant response rating (0 to 100 scale): 31 g ai/ha
Procedure, shortened: as §2

Italian ryegrass [7] = assay: Test A preemergence; type: in vivo, Lolium multiflorum; conditions: for Plant response rating, Ryegrass, Italian: 125 g ai/ha, 0 to 100 scale where 0 is no effect and 100 is complete control; for Ryegrass, Italian plant response rating (0 to 100 scale): 31 g ai/ha
Procedure, shortened: as §2

corn = assay: Test A postemergence; type: in vivo, Zea mays
Procedure, shortened: as §2

galium = assay: Test A postemergence; type: in vivo, Galium aparine
Procedure, shortened: as §2

pigweed [8] = assay: Test A preemergence; type: in vivo, Amaranthus retroflexus; conditions: for Plant response rating, Pigweed: 125 g ai/ha, 0 to 100 scale where 0 is no effect and 100 is complete control; for Pigweed plant response rating (0 to 100 scale): 31 g ai/ha
Procedure, shortened: as §2

ragweed [9] = assay: Test A postemergence; type: in vivo, Ambrosia elatior
Procedure, shortened: as §2

barnyardgrass [10] = assay: Test A postemergence; type: in vivo, Echinochloa crus-galli
Procedure, shortened: as §2

Italian ryegrass [11] = assay: Test A postemergence; type: in vivo, Lolium multiflorum
Procedure, shortened: as §2

giant foxtail [12] = assay: Test A postemergence; type: in vivo, Setaria faberii
Procedure, shortened: as §2

kochia [13] = assay: Test A postemergence; type: in vivo, Kochia scoparia
Procedure, shortened: as §2

[14] = 500 g ai/ha, 0 to 100 scale, 0 no effect, 100 complete control, approx. 10 days
[15] = 125 g ai/ha, 0 to 100 scale where 0 is no effect and 100 is complete control
[16] = 500 g ai/ha, 0 to 100 scale where 0 is no effect and 100 is complete control
[17] = 31 g ai/ha, 0 to 100 scale, 0 no effect, 100 complete control

N#Cc1cnn(-c2c(C#N)cccc2Oc2ncc(I)cn2)c1 [Compound 91]
Plant response rating, Barnyardgrass (barnyardgrass [1]): 0
Plant response rating, Foxtail, Giant (giant foxtail [2]): 10
Foxtail, Giant plant response rating (giant foxtail [2]; [14]): 30
Plant response rating, Blackgrass (blackgrass; [15]): 0
Plant response rating, Blackgrass (blackgrass; [16]): 30
Plant response rating, Ragweed (ragweed [3]): 0
Ragweed plant response rating (ragweed [3]; [14]): 0
Plant response rating, Pigweed (pigweed [4]; [15]): 10
Plant response rating, Pigweed (pigweed [4]; [16]): 50
Plant response rating, Kochia (kochia [5]): 30
Kochia plant response rating (kochia [5]; [14]): 90
Plant response rating, Wheat (wheat; [15]): 0
Plant response rating, Wheat (wheat; [16]): 10
Plant response rating, Sedge, Umbrella (sedge, umbrella): 0
Plant response rating, Rice (rice): 0
Plant response rating, Ducksalad (Heteranthera limosa): 0
Plant response rating, Barnyardgrass (barnyardgrass [6]): 0
Barnyardgrass plant response rating (barnyardgrass [6]; [14]): 0
Plant response rating, Ryegrass, Italian (Italian ryegrass [7]): 0
Ryegrass, Italian plant response rating (Italian ryegrass [7]; [14]): 30
Plant response rating, Corn (corn; [15]): 0
Plant response rating, Corn (corn; [16]): 0
Plant response rating, Galium (galium; [15]): 40
Plant response rating, Galium (galium; [16]): 70
Plant response rating, Pigweed (pigweed [8]): 70
Pigweed plant response rating (pigweed [8]; [14]): 90
Plant response rating, Ragweed (ragweed [9]; [15]): 10
Plant response rating, Ragweed (ragweed [9]; [16]): 30
Plant response rating, Barnyardgrass (barnyardgrass [10]; [15]): 0
Plant response rating, Barnyardgrass (barnyardgrass [10]; [16]): 10
Plant response rating, Ryegrass, Italian (Italian ryegrass [11]; [15]): 0
Plant response rating, Ryegrass, Italian (Italian ryegrass [11]; [16]): 0
Plant response rating, Foxtail, Giant (giant foxtail [12]; [15]): 10
Plant response rating, Foxtail, Giant (giant foxtail [12]; [16]): 10
Plant response rating, Kochia (kochia [13]; [15]): 10
Plant response rating, Kochia (kochia [13]; [16]): 30

N#Cc1cccc(Oc2ncc(Cl)cn2)c1-n1cc(OCC(F)F)cn1 [Compound 99]
Plant response rating, Barnyardgrass (barnyardgrass [1]): 0
Foxtail, Giant plant response rating (0 to 100 scale) (giant foxtail [2]): 100
Plant response rating, Foxtail, Giant (giant foxtail [2]): 100
Plant response rating, Blackgrass (blackgrass; [17]): 50
Plant response rating, Blackgrass (blackgrass; [15]): 90
Ragweed plant response rating (0 to 100 scale) (ragweed [3]): 70
Plant response rating, Ragweed (ragweed [3]): 90
Plant response rating, Pigweed (pigweed [4]; [17]): 100
Kochia plant response rating (0 to 100 scale) (kochia [5]): 100
Plant response rating, Kochia (kochia [5]): 100
Plant response rating, Wheat (wheat; [17]): 50
Plant response rating, Sedge, Umbrella (sedge, umbrella): 0
Plant response rating, Rice (rice): 0
Plant response rating, Ducksalad (Heteranthera limosa): 0
Barnyardgrass plant response rating (0 to 100 scale) (barnyardgrass [6]): 80
Plant response rating, Barnyardgrass (barnyardgrass [6]): 90
Ryegrass, Italian plant response rating (0 to 100 scale) (Italian ryegrass [7]): 0
Plant response rating, Ryegrass, Italian (Italian ryegrass [7]): 30
Plant response rating, Corn (corn; [17]): 20
Plant response rating, Corn (corn; [15]): 90
Plant response rating, Galium (galium; [17]): 90
Plant response rating, Galium (galium; [15]): 100
Pigweed plant response rating (0 to 100 scale) (pigweed [8]): 100
Plant response rating, Pigweed (pigweed [8]): 100
Plant response rating, Ragweed (ragweed [9]; [17]): 30
Plant response rating, Barnyardgrass (barnyardgrass [10]; [17]): 100
Plant response rating, Barnyardgrass (barnyardgrass [10]; [15]): 100
Plant response rating, Ryegrass, Italian (Italian ryegrass [11]; [17]): 20
Plant response rating, Foxtail, Giant (giant foxtail [12]; [17]): 90
Plant response rating, Foxtail, Giant (giant foxtail [12]; [15]): 100
Plant response rating, Kochia (kochia [13]; [17]): 100
Plant response rating, Kochia (kochia [13]; [15]): 100

CC(C)Oc1cnn(-c2c(Cl)cccc2Oc2ncc(Cl)cn2)c1 [Compound 103]
Plant response rating, Barnyardgrass (barnyardgrass [1]): 0
Foxtail, Giant plant response rating (0 to 100 scale) (giant foxtail [2]): 0
Plant response rating, Foxtail, Giant (giant foxtail [2]): 0
Plant response rating, Blackgrass (blackgrass; [17]): 0
Plant response rating, Blackgrass (blackgrass; [15]): 0
Ragweed plant response rating (0 to 100 scale) (ragweed [3]): 0
Plant response rating, Ragweed (ragweed [3]): 0
Plant response rating, Pigweed (pigweed [4]; [17]): 0
Kochia plant response rating (0 to 100 scale) (kochia [5]): 0
Plant response rating, Kochia (kochia [5]): 0
Plant response rating, Wheat (wheat; [17]): 0
Plant response rating, Sedge, Umbrella (sedge, umbrella): 0
Plant response rating, Rice (rice): 0
Plant response rating, Ducksalad (Heteranthera limosa): 0
Barnyardgrass plant response rating (0 to 100 scale) (barnyardgrass [6]): 0
Plant response rating, Barnyardgrass (barnyardgrass [6]): 0
Ryegrass, Italian plant response rating (0 to 100 scale) (Italian ryegrass [7]): 0
Plant response rating, Ryegrass, Italian (Italian ryegrass [7]): 0
Plant response rating, Corn (corn; [17]): 0
Plant response rating, Corn (corn; [15]): 0
Plant response rating, Galium (galium; [17]): 0
Plant response rating, Galium (galium; [15]): 0
Pigweed plant response rating (0 to 100 scale) (pigweed [8]): 0
Plant response rating, Pigweed (pigweed [8]): 0
Plant response rating, Ragweed (ragweed [9]; [17]): 0
Plant response rating, Barnyardgrass (barnyardgrass [10]; [17]): 0
Plant response rating, Barnyardgrass (barnyardgrass [10]; [15]): 0
Plant response rating, Ryegrass, Italian (Italian ryegrass [11]; [17]): 0
Plant response rating, Foxtail, Giant (giant foxtail [12]; [17]): 0
Plant response rating, Foxtail, Giant (giant foxtail [12]; [15]): 0
Plant response rating, Kochia (kochia [13]; [17]): 0
Plant response rating, Kochia (kochia [13]; [15]): 0

Fc1cccc(Oc2ncc(Cl)cn2)c1-n1cc(C2CCCC2)nn1 [Compound 106]
Plant response rating, Barnyardgrass (barnyardgrass [1]): 0
Foxtail, Giant plant response rating (0 to 100 scale) (giant foxtail [2]): 30
Plant response rating, Foxtail, Giant (giant foxtail [2]): 70
Plant response rating, Blackgrass (blackgrass; [17]): 30
Plant response rating, Blackgrass (blackgrass; [15]): 50
Ragweed plant response rating (0 to 100 scale) (ragweed [3]): 0
Plant response rating, Ragweed (ragweed [3]): 0
Plant response rating, Pigweed (pigweed [4]; [17]): 50
Kochia plant response rating (0 to 100 scale) (kochia [5]): 0
Plant response rating, Kochia (kochia [5]): 0
Plant response rating, Wheat (wheat; [17]): 0
Plant response rating, Sedge, Umbrella (sedge, umbrella): 90
Plant response rating, Rice (rice): 0
Plant response rating, Ducksalad (Heteranthera limosa): 75
Barnyardgrass plant response rating (0 to 100 scale) (barnyardgrass [6]): 0
Plant response rating, Barnyardgrass (barnyardgrass [6]): 40
Ryegrass, Italian plant response rating (0 to 100 scale) (Italian ryegrass [7]): 0
Plant response rating, Ryegrass, Italian (Italian ryegrass [7]): 0
Plant response rating, Corn (corn; [17]): 0
Plant response rating, Corn (corn; [15]): 20
Plant response rating, Galium (galium; [17]): 50
Plant response rating, Galium (galium; [15]): 70
Pigweed plant response rating (0 to 100 scale) (pigweed [8]): 10
Plant response rating, Pigweed (pigweed [8]): 60
Plant response rating, Ragweed (ragweed [9]; [17]): 20
Plant response rating, Barnyardgrass (barnyardgrass [10]; [17]): 0
Plant response rating, Barnyardgrass (barnyardgrass [10]; [15]): 50
Plant response rating, Ryegrass, Italian (Italian ryegrass [11]; [17]): 0
Plant response rating, Foxtail, Giant (giant foxtail [12]; [17]): 50
Plant response rating, Foxtail, Giant (giant foxtail [12]; [15]): 70
Plant response rating, Kochia (kochia [13]; [17]): 0
Plant response rating, Kochia (kochia [13]; [15]): 50

— US9695155B2, “Herbicidal substituted pyrimidinyloxy benzene compounds” (E. I. DU PONT DE NEMOURS AND COMPANY, priority 2013, dated 2017)
